Reference: the supplement of paper PMC11451515

System: NOMO1
Experiment: cell viability relative to DMSO control; higher = less cytotoxic
Conditions: 48 h
Outline: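 Viability values are per-plate percentages of DMSO wells, with background from cell-free wells. Library compounds in DMSO were pin-dosed, in an 11-point threefold series from 47 μM to 0.79 nM, onto NOMO1 or SEM (500 cells/well) or P12-Ichikawa (1000 cells/well) leukemia cells in 1536-well plates (5 μl). Those cells had been adapted for at least four passages in each medium, and CellTiter-Glo One luminescence was read after 48 h at 37°C.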

[1] = HPLM + 10% dialyzed FBS, 0.000781 µM
[2] = HPLM + 10% dialyzed FBS, 0.00234 µM
[3] = HPLM + 10% dialyzed FBS, 0.00702 µM
[4] = HPLM + 10% dialyzed FBS, 0.0211 µM
[5] = HPLM + 10% dialyzed FBS, 0.0632 µM
[6] = HPLM + 10% dialyzed FBS, 0.19 µM
[7] = HPLM + 10% dialyzed FBS, 0.569 µM
[8] = HPLM + 10% dialyzed FBS, 1.71 µM
[9] = HPLM + 10% dialyzed FBS, 5.12 µM
[10] = HPLM + 10% dialyzed FBS, 15.4 µM
[11] = HPLM + 10% dialyzed FBS, 46.1 µM
[12] = RPMI 5 mM glucose + 10% FBS, 0.000781 µM
[13] = RPMI 5 mM glucose + 10% FBS, 0.00234 µM
[14] = RPMI 5 mM glucose + 10% FBS, 0.00702 µM
[15] = RPMI 5 mM glucose + 10% FBS, 0.0211 µM
[16] = RPMI 5 mM glucose + 10% FBS, 0.0632 µM
[17] = RPMI 5 mM glucose + 10% FBS, 0.19 µM
[18] = RPMI 5 mM glucose + 10% FBS, 0.569 µM
[19] = RPMI 5 mM glucose + 10% FBS, 1.71 µM
[20] = RPMI 5 mM glucose + 10% FBS, 5.12 µM
[21] = RPMI 5 mM glucose + 10% FBS, 15.4 µM
[22] = RPMI 5 mM glucose + 10% FBS, 46.1 µM
[23] = RPMI 5 mM glucose + 10% dialyzed FBS, 0.000781 µM
[24] = RPMI 5 mM glucose + 10% dialyzed FBS, 0.00234 µM
[25] = RPMI 5 mM glucose + 10% dialyzed FBS, 0.00702 µM
[26] = RPMI 5 mM glucose + 10% dialyzed FBS, 0.0211 µM
[27] = RPMI 5 mM glucose + 10% dialyzed FBS, 0.0632 µM
[28] = RPMI 5 mM glucose + 10% dialyzed FBS, 0.19 µM
[29] = RPMI 5 mM glucose + 10% dialyzed FBS, 0.569 µM
[30] = RPMI 5 mM glucose + 10% dialyzed FBS, 1.71 µM
[31] = RPMI 5 mM glucose + 10% dialyzed FBS, 5.12 µM
[32] = RPMI 5 mM glucose + 10% dialyzed FBS, 15.4 µM
[33] = RPMI 5 mM glucose + 10% dialyzed FBS, 46.1 µM

Row | Compound | cell viability [1] | cell viability [2] | cell viability [3] | cell viability [4] | cell viability [5] | cell viability [6] | cell viability [7] | cell viability [8] | cell viability [9] | cell viability [10] | cell viability [11] | cell viability [12] | cell viability [13] | cell viability [14] | cell viability [15] | cell viability [16] | cell viability [17] | cell viability [18] | cell viability [19] | cell viability [20] | cell viability [21] | cell viability [22] | cell viability [23] | cell viability [24] | cell viability [25] | cell viability [26] | cell viability [27] | cell viability [28] | cell viability [29] | cell viability [30] | cell viability [31] | cell viability [32] | cell viability [33]
1 | CC[C@H](CC#N)OC(=O)N[C@@H](C)c1cccc(NC(=O)Nc2ccc(-c3cnco3)c(OC)c2)c1 | 117% | 114% | 119% | 105% | 127% | 111% | 98.2% | 76.4% | 38.9% | 32.1% | 35.1% | 111% | 104% | 121% | 107% | 114% | 105% | 113% | 66.8% | 38.3% | 25.9% | 22.3% | 117% | 106% | 115% | 120% | 111% | 112% | 91% | 84% | 51.9% | 39.4% | 35.8%
2 | NC1(Cc2ccc(Cl)cc2)CCN(c2ncnc3[nH]ccc23)CC1 | 97.7% | 93.7% | 89.9% | 106% | 92.9% | 105% | 116% | 81.9% | 82% | 45.6% | 29.4% | 106% | 102% | 88.3% | 101% | 97.4% | 90.5% | 85.5% | 90.6% | 74.5% | 32.6% | 16.3% | 102% | 92.8% | 94.7% | 90.2% | 102% | 84.9% | 87.8% | 80.9% | 67.3% | 33% | 17.7%
3 | COc1nccc(-c2c(-c3ccc(F)cc3)ncn2C2CCNCC2)n1 | 95.7% | 121% | 124% | 127% | 120% | 121% | 119% | 94.4% | 107% | 78.3% | 49.4% | 45.8% | 120% | 115% | 101% | 113% | 107% | 100% | 112% | 96.7% | 97.6% | 74% | 44.9% | 119% | 97.3% | 110% | 106% | 104% | 108% | 104% | 101% | 99.1% | 68%
4 | COc1ccc(-c2cc3nccn3c(Nc3ncccc3C(N)=O)n2)cc1OC | 125% | 111% | 107% | 117% | 124% | 111% | 110% | 96.6% | 109% | 89% | 93% | 90% | 95.3% | 118% | 107% | 99.7% | 111% | 95% | 103% | 102% | 92.7% | 103% | 106% | 106% | 113% | 95.2% | 116% | 107% | 106% | 105% | 107% | 109% | 101%
5 | CC\1=C/C=C\C=[N]1[Pt](N)(Cl)Cl | 118% | 105% | 111% | 110% | 108% | 130% | 131% | 98.8% | 106% | 129% | 108% | 96.4% | 95.6% | 93.4% | 103% | 99.6% | 113% | 106% | 88.7% | 106% | 110% | 93.3% | 107% | 90.8% | 96.6% | 95.3% | 96.4% | 111% | 97.3% | 104% | 107% | 109% | 96.3%
6 | COC1=C(N2CCNC(C)C2)C(=CC3=C1N(\C=C(C(O)=O)/C3=O)C4CC4)F (centres undefined) | 89.4% | 82.7% | 103% | 115% | 105% | 123% | 103% | 117% | 95.2% | 92.8% | 77.2% | 100% | 87.7% | 88.6% | 99.5% | 96% | 96.8% | 96.6% | 104% | 20.3% | 111% | 103% | 97.6% | 86.9% | 98.2% | 94.3% | 100% | 110% | 94% | 99.3% | 74.2% | 99.1% | 95.8%
7 | OC[C@H]1O[C@@H](O[C@@H]2[C@@H](CO)O[C@](O)(CO)[C@H]2O)[C@H](O)[C@@H](O)[C@H]1O | 108% | 110% | 110% | 113% | 99.5% | 92.2% | 103% | 95.1% | 102% | 47.7% | 78.1% | 91.1% | 95.4% | 111% | 109% | 105% | 100% | 105% | 97.3% | 88.1% | 71.9% | 86.2% | 91.4% | 86.6% | 103% | 97.5% | 95.7% | 101% | 100% | 98.7% | 92.5% | 68.1% | 80.6%
8 | CN1[C@@H]2CC(OC(=O)[C@@H](CO)c3ccccc3)C[C@H]1[C@H]1O[C@H]12 (some centres undefined) | 94.8% | 120% | 108% | 124% | 103% | 104% | 106% | 95.8% | 93.8% | 92.3% | 121% | 87.3% | 86.7% | 101% | 85.5% | 90.3% | 85.2% | 86.3% | 93.4% | 82.9% | 81.4% | 81.3% | 80.4% | 95.5% | 98.8% | 88.5% | 102% | 103% | 90.9% | 99.4% | 88.2% | 95.4% | 89.8%
9 | COC(=O)Nc1nc2cc(C(=O)c3cccs3)ccc2[nH]1 | 106% | 88.5% | 113% | 81.8% | 43.6% | 34.2% | 32.3% | 44% | 57.7% | 57.3% | 53.1% | – | – | – | – | – | – | – | – | – | – | – | 98.2% | 113% | 129% | 101% | 53.6% | 28.1% | 33.7% | 36.1% | 36.2% | 40.5% | 42.2%
10 | CCc1cc(Nc2nccc(-c3c(-c4ccc(OC)c(C(=O)Nc5c(F)cccc5F)c4)nc4ccccn34)n2)c(OC)cc1N1CCC(N2CCN([S+](C)(=O)[O-])CC2)CC1 | 101% | 95.2% | 103% | 104% | 105% | 96.7% | 114% | 120% | 103% | 96% | 43.2% | 101% | 91.5% | 92.7% | 95.3% | 94.6% | 102% | 114% | 106% | 101% | 111% | 44.6% | 84.8% | 90.1% | 94.8% | 101% | 104% | 86% | 102% | 107% | 109% | 98.3% | 65.5%
11 | O=C(NOCC(O)CO)c1cc(Br)c(F)c(F)c1Nc1ccc(I)cc1F (centres undefined) | 65.8% | 77.1% | 72.1% | 79.8% | 59.2% | 50.5% | 30.1% | 32.6% | 29% | 33.9% | 20% | 69.1% | 90.6% | 67.6% | 73.3% | 66.5% | 50.5% | 28.1% | 33.7% | 27.5% | 28.8% | 27.8% | 81.3% | 84.3% | 59.2% | 58.1% | 49.8% | 40.9% | 27.5% | 30.3% | 26.7% | 31.2% | 24.6%
12 | Cc1c(CN2CCN(C(=O)[C@H](C)O)CC2)sc2c(N3CCOCC3)nc(-c3cnc(N)nc3)nc12 | 77.8% | 100% | 89.8% | 90.4% | 86.5% | 71.5% | 53.9% | 46.9% | 33.7% | 39.4% | 40.5% | 79.2% | 93.6% | 93.9% | 88.6% | 91.5% | 86.9% | 69.1% | 58.2% | 52.5% | 47.9% | 43.9% | 79.7% | 94% | 81.2% | 74.5% | 69.5% | 73.7% | 59.1% | 45.4% | 47.8% | 44.6% | 39.3%
13 | O=NN(CCCl)C(=O)NC1CCCCC1 | 91.4% | 114% | 110% | 94.8% | 105% | 107% | 113% | 110% | 111% | 97.4% | 109% | 99.2% | 95.4% | 113% | 95.2% | 102% | 108% | 115% | 56.6% | 100% | 110% | 102% | 102% | 102% | 93.5% | 105% | 111% | 97.7% | 113% | 93.6% | 99.2% | 109% | 99.7%
14 | N=C(CCSCc1csc(N=C(N)N)n1)N[S+](N)(=O)[O-] | 87% | 95.6% | 110% | 101% | 99.1% | 83.2% | 101% | 115% | 101% | 91.8% | 107% | 80.2% | 94.7% | 94.8% | 92% | 92.2% | 97.5% | 93.8% | 88.1% | 99.1% | 86.8% | 88.3% | 84.7% | 96% | 89.9% | 92.1% | 100% | 106% | 95.7% | 93.7% | 100% | 97% | 103%
15 | CN(C)CCOc1cc(-c2cn[nH]c2)ccc1NC(=O)C1COc2ccccc2O1 (centres undefined) | 84.2% | 104% | 118% | 122% | 118% | 106% | 119% | 107% | 122% | 93.9% | 67.1% | 105% | 93.2% | 110% | 127% | 94.7% | 97.5% | 114% | 96.3% | 85.4% | 81.5% | 64.3% | 98.5% | 100% | 106% | 112% | 114% | 97.7% | 102% | 96.9% | 91.5% | 71.8% | 77%
